Reference: US10413535B2, “Pharmaceutical compositions comprising an integrin ALPHA4 antagonist for use in treating ocular inflammatory conditions” (AXEROVISION, INC., priority 2015, dated 2019)
Read-outs that look alike come from different tables or passages of the source.

Assays:
[1] = tested on: RPMI 8866 binding to CS-1; assay: CS-1 cell adhesion assay, RPMI 8866 cells; assay type: cell-based; conditions: Homo sapiens; RPMI 8866 cells to CS-1; identical duplicate values; read-out: Inhibition of cell adhesion (IC50)
Procedure: Jurkat J6 cells (human lymphoblast cell line) were grown as a suspension culture in RPMI 1640 supplemented with FCS (10%) and glutamine (2 mM). RPMI8866 cells (human B lymphoid cell line) were grown as a suspension culture in RPMI 1640 supplemented with FCS (10%) and glutamine (2 mM). RBL-2H3 cells (rat basophilic cell line) were cultured in Eagle's MEM plus Earles salts supplemented with 2 mM L-glutamine, 1 mM sodium pyruvate, 1× non-essential amino acids, 1 mM Na pyruvate 10% heat inactivated foetal calf serum.
Polystyrene 96-well microtitre plates were coated with CS-1 (connecting segment 1, a cell attachment domain of fibronectin) at a concentration of 0.01 mg/mL in bicarbonate buffer overnight at 4° C. The solution was aspirated and the plates washed twice with PBS. The plates were then incubated at room temperature in the presence of 3% BSA for 60 min, ‘flicked’ to expel the BSA and washed twice in bicarbonate buffer. J6 or RPMI cells (as required) were labelled with the fluorescent dye BCECF-AM (10 μM and 6×10^6 cells/mL) for 10 min at 37° C. before the excess was removed by centrifugation at 500 g for 5 min and the cells resuspended at a cell concentration of 1.2×10^7 cells/mL in HBSS. Equal volumes of HBSS containing the compound of formula I (over concentration range 19.0 pM to 5 μM) and cells were added to the CS-1 coated plates. […] The plates were counted in a Wallac Viktor.

[2] = Toxicokinetics in 13-week topical ocular dog study; conditions: in vivo, topical or ocular
Procedure: GW559090A was given to Beagle Dogs by topical ocular administration for 13 weeks. Animals were dosed six or twelve times per day, with one hour between doses. Treatment groups were: (1) vehicle (12 times a day), (2) 30 mg/mL/occasion given six times a day, (3) 50 mg/mL/occasion given six times a day, or (4) 50 mg/mL/occasion, given 12 times a day.
GW559090A was formulated as a stock solution in 25 mM phosphate buffer with 0.5% sodium chloride to provide a 50 mg/mL stock solution, which was used for administration to Groups 3 or 4, or further diluted with 25 mM phosphate buffer with 0.75% sodium chloride to provide a 30 mg/mL solution for administration to Group 2.
During the 13 week treatment period dogs received daily topical ocular doses of GW559090 or vehicle (12 times a day) at a constant dose volume of 0.06 mL (given 6 or 12 times a day, with one hour between doses). The test article formulation or vehicle was carefully dropped into the everted lower eyelid of the left eye from a suitable distance, to prevent contact of the positive displacement pipette with the eye. The lower and upper lids were then gently held together for approximately five seconds, to prevent loss of dose and aid even distribution across the external ocular surface. The un-dosed eye was not manipulated at any time and served as a within animal untreated control site.

SMILES: Cc1ccccc1OCC(=O)N[C@@H](CC(C)C)C(=O)N[C@@H](Cc1ccc(OC(=O)N2CCC(C(N)=O)CC2)cc1)C(=O)O [GW559090, (2S)-3-[4-({[4-(Aminocarbonyl)-1-piperidinyl]carbonyl}oxy)phenyl]-2-[((2S)-4-methyl-2-{[2-(2-methylphenoxy)acetyl]amino}pentanoyl)amino]propanoic acid]
- IC50 [1]: 24.5 nM
- AUC(0-t) ([2]; both sexes, Beagle, 50 mg/mL/occasion, dogs, males and females combined, 50 mg/mL/occasion 12 times a day, Week 13, read-out: AUC0-1 exposure at NOAEL): 11.2 ng·h/mL
- Estimated AUC0-24 ([2]; both sexes, Beagle, 50 mg/mL/occasion, dogs, males and females combined, 50 mg/mL/occasion 12 times a day, Week 13, read-out: Estimated AUC0-24 at NOAEL): 134 ng·h/mL
- Cmax ([2]; both sexes, Beagle, dogs, males and females combined, 50 mg/mL/occasion 12 times a day, Week 13, read-out: Cmax at NOAEL): 28.7 ng/mL
- Tmax ([2]; female, beagle, 30 mg/mL/occasion, female dogs, 30 mg/mL, 6 daily doses, Day 1): 30 min
- AUC(0-t) ([2]; female, beagle, 30 mg/mL/occasion, female dogs, 30 mg/mL, 6 daily doses, Day 1, read-out: AUC0-1): 5.27 ng·h/mL
- AUC(0-t) ([2]; female, beagle, 30 mg/mL/occasion, female dogs, 30 mg/mL, 6 daily doses, Day 1, read-out: AUC0-24): 31.6 ng·h/mL
- Cmax ([2]; female, beagle, 30 mg/mL/occasion, female dogs, 30 mg/mL, 6 daily doses, Day 1, read-out: Cmax): 12.2 ng/mL
- Tmax ([2]; female, beagle, 30 mg/mL/occasion, female dogs, 30 mg/mL, 6 daily doses, Week 4): 22.5 min
- AUC(0-t) ([2]; female, beagle, 30 mg/mL/occasion, female dogs, 30 mg/mL, 6 daily doses, Week 4, read-out: AUC0-1): 4.28 ng·h/mL
- AUC(0-t) ([2]; female, beagle, 30 mg/mL/occasion, female dogs, 30 mg/mL, 6 daily doses, Week 4, read-out: AUC0-24): 25.7 ng·h/mL
- Cmax ([2]; female, beagle, 30 mg/mL/occasion, female dogs, 30 mg/mL, 6 daily doses, Week 4, read-out: Cmax): 9.34 ng/mL
- Tmax ([2]; female, beagle, 30 mg/mL/occasion, female dogs, 30 mg/mL, 6 daily doses, Week 13): 15 min
- AUC(0-t) ([2]; female, beagle, 30 mg/mL/occasion, female dogs, 30 mg/mL, 6 daily doses, Week 13, read-out: AUC0-1): 6.05 ng·h/mL
- AUC(0-t) ([2]; female, beagle, 30 mg/mL/occasion, female dogs, 30 mg/mL, 6 daily doses, Week 13, read-out: AUC0-24): 36.3 ng·h/mL
- Cmax ([2]; female, beagle, 30 mg/mL/occasion, female dogs, 30 mg/mL, 6 daily doses, Week 13, read-out: Cmax): 17.5 ng/mL
- Tmax ([2]; female, beagle, 50 mg/mL/occasion, female dogs, 50 mg/mL, 6 daily doses, Day 1): 15 min
- AUC(0-t) ([2]; female, beagle, 50 mg/mL/occasion, female dogs, 50 mg/mL, 6 daily doses, Day 1, read-out: AUC0-1): 8.79 ng·h/mL
- AUC(0-t) ([2]; female, beagle, 50 mg/mL/occasion, female dogs, 50 mg/mL, 6 daily doses, Day 1, read-out: AUC0-24): 52.7 ng·h/mL
- Cmax ([2]; female, beagle, 50 mg/mL/occasion, female dogs, 50 mg/mL, 6 daily doses, Day 1, read-out: Cmax): 17 ng/mL
- Tmax ([2]; female, beagle, 50 mg/mL/occasion, female dogs, 50 mg/mL, 6 daily doses, Week 4): 15 min
- AUC(0-t) ([2]; female, beagle, 50 mg/mL/occasion, female dogs, 50 mg/mL, 6 daily doses, Week 4, read-out: AUC0-1): 5.26 ng·h/mL
- AUC(0-t) ([2]; female, beagle, 50 mg/mL/occasion, female dogs, 50 mg/mL, 6 daily doses, Week 4, read-out: AUC0-24): 31.6 ng·h/mL
- Cmax ([2]; female, beagle, 50 mg/mL/occasion, female dogs, 50 mg/mL, 6 daily doses, Week 4, read-out: Cmax): 11.4 ng/mL
- Tmax ([2]; female, beagle, 50 mg/mL/occasion, female dogs, 50 mg/mL, 6 daily doses, Week 13): 10 min
- AUC(0-t) ([2]; female, beagle, 50 mg/mL/occasion, female dogs, 50 mg/mL, 6 daily doses, Week 13, read-out: AUC0-1): 6.64 ng·h/mL
- AUC(0-t) ([2]; female, beagle, 50 mg/mL/occasion, female dogs, 50 mg/mL, 6 daily doses, Week 13, read-out: AUC0-24): 39.8 ng·h/mL
- Cmax ([2]; female, beagle, 50 mg/mL/occasion, female dogs, 50 mg/mL, 6 daily doses, Week 13, read-out: Cmax): 17.9 ng/mL
- Tmax ([2]; female, beagle, 50 mg/mL/occasion, female dogs, 50 mg/mL, 12 daily doses, Day 1): 30 min
- AUC(0-t) ([2]; female, beagle, 50 mg/mL/occasion, female dogs, 50 mg/mL, 12 daily doses, Day 1, read-out: AUC0-1): 12.8 ng·h/mL
- AUC(0-t) ([2]; female, beagle, 50 mg/mL/occasion, female dogs, 50 mg/mL, 12 daily doses, Day 1, read-out: AUC0-24): 153 ng·h/mL
- Cmax ([2]; female, beagle, 50 mg/mL/occasion, female dogs, 50 mg/mL, 12 daily doses, Day 1, read-out: Cmax): 21.8 ng/mL
- Tmax ([2]; female, beagle, 50 mg/mL/occasion, female dogs, 50 mg/mL, 12 daily doses, Week 4): 10 min
- AUC(0-t) ([2]; female, beagle, 50 mg/mL/occasion, female dogs, 50 mg/mL, 12 daily doses, Week 4, read-out: AUC0-1): 6.77 ng·h/mL
- AUC(0-t) ([2]; female, beagle, 50 mg/mL/occasion, female dogs, 50 mg/mL, 12 daily doses, Week 4, read-out: AUC0-24): 81.2 ng·h/mL
- Cmax ([2]; female, beagle, 50 mg/mL/occasion, female dogs, 50 mg/mL, 12 daily doses, Week 4, read-out: Cmax): 14.5 ng/mL
- Tmax ([2]; female, beagle, 50 mg/mL/occasion, female dogs, 50 mg/mL, 12 daily doses, Week 13): 15 min
